From US20230310436A1, “COMBINATION THERAPY FOR CANCERS WITH KRAS MUTATION” (COTHERA BIOSCIENCE, INC., priority 2019, published 2023)

Legend:
[1] = test system: KRAS^G12C-NSCLC H2030 cell line; assay: Ex vivo Edu proliferation test (MI, GI %), H2030; format: cell-based; details: Table 2a; 7 days; uM: osimertinib 0.5, afatinib 0.2, cobimetinib 0.4, trametinib 0.02, palbociclib 0.15, ribociclib 5
Method: (§1) For ex vivo drug testing, the cells were exposed to a combination of drugs or single drugs for 4 days or 7 days. Following exposure with drug, 1,000-5,000 cells were labeled with 5-ethynyl-2′-deoxyuridine (Edu) to assess the tumor cell proliferation rates. The labeling lasted 24 hours in the presence of drug exposure. In the control group, epithelial tumor cells received no drug exposure with media change (with 0.1% DMSO), but were similarly labeled with Edu. The labeled cells were fixed and blocked with 3% BSA and 0.5% Triton X-100 for 2 hours at room temperature, followed by staining with Hoechst 33342 and EpCAM antibody (1:4000) in PBS solution containing 0.5% Triton X-100 overnight at 4° C. Subsequently, the cells were rinsed with PBST then incubated with Alexa Fluor® 647 conjugated goat-antimouse secondary antibody for 30 minutes at room temperature.
(§2) The incorporated Edu was detected by Click-iT reaction where fixed cells were incubated with a reaction mixture containing 1× Click-iT Edu reaction buffer, CuSO4, and azide-conjugated Alexa Fluor dye in the dark. The stained cells were washed with PBS two times before image acquisition and analysis.
(§3) For image acquisition and analysis, the stained tumor cells were imaged by a high-content screening (HCS) platform (Thermo Scientific CellomicsArrayScanXTi HCS reader). The 10× objective was used to collect images. Twenty-five fields were imaged for each well for the analysis. From the images three fluorescent signals were obtained from the HCS reader. Blue fluorescent signals recorded nucleus signals stained with Hoechst 33342, green fluorescent signal detected the Edu incorporated in newly synthesized DNA, and red fluorescent signal detected the EpCAM positive epithelial cells population.
(§4) The MI (Maximum Inhibition Index) was calculated using the EpCAM and Edu positive readout (Tables 1-4). MI=Edu positive cells in control/Edu positive cells in treatment. MI4 indicates an MI value after 4 days of treatment and MI7 indicates an MI values after 7 days of treatment. The MI and growth inhibition rate (GI %) values for KRAS^G12A-NSCLC (H1573 and H2009), KRAS^G12C-NSCLC (H358, H23 and H2030), KRAS^G12V-NSCLC (H2291 and H2444) and KRAS^G12D-NSCLC (H1588 and SK-LU-1) cell lines are shown in Tables 1-4, respectively. GI % is calculated as GI %=(1−1/MI)*100%.

[2] = test system: KRAS^G12D-NSCLC SK-LU-1 cell line; assay: Ex vivo Edu proliferation test (MI, GI %), SK-LU-1; format: cell-based; details: Table 4; 4 days; uM: osimertinib 0.5, afatinib 0.2, cobimetinib 0.4, trametinib 0.02, TAK-733 0.18, palbociclib 0.15, ribociclib 5
Method: as §1, §2, §3, §4

[3] = test system: KRAS^G12V-NSCLC H2291 cell line; assay: Ex vivo Edu proliferation test (MI, GI %), H2291; format: cell-based; details: Table 3; 7 days; uM: osimertinib 0.5, afatinib 0.2, trametinib 0.02, TAK-733 0.18, palbociclib 0.15, ribociclib 5
Method: as §1, §2, §3, §4

[4] = test system: KRAS^G12A-NSCLC H1573 cell line; assay: Ex vivo Edu proliferation test (MI, GI %), H1573; format: cell-based; details: Table 1; 4 days; uM: osimertinib 0.5, afatinib 0.2, cobimetinib 0.4, trametinib 0.02, TAK-733 0.18, palbociclib 0.15, ribociclib 5
Method: as §1, §2, §3
The MI (Maximum Inhibition Index) was calculated using the EpCAM and Edu positive readout (Tables 1-4). MI=Edu positive cells in control/Edu positive cells in treatment. MI4 indicates an MI value after 4 days of treatment and MI7 indicates an MI values after 7 days of treatment. […] GI % is calculated as GI %=(1−1/MI)*100%.

[5] = test system: KRAS^G12C-NSCLC H358 cell line; assay: Ex vivo Edu proliferation test (MI, GI %), H358; format: cell-based; details: Table 2a; 7 days; uM: osimertinib 0.5, afatinib 0.2, cobimetinib 0.4, trametinib 0.02, palbociclib 0.15, ribociclib 5
Method: as §1, §2, §3, §4

[6] = test system: KRAS^G12D-NSCLC H1588 cell line; assay: Ex vivo Edu proliferation test (MI, GI %), H1588; format: cell-based; details: Table 4; 4 days; uM: osimertinib 0.5, afatinib 0.2, cobimetinib 0.4, trametinib 0.02, TAK-733 0.18, palbociclib 0.15, ribociclib 5
Method: as §1, §2, §3, §4

[7] = test system: KRAS^G12A-NSCLC H2009 cell line; assay: Ex vivo Edu proliferation test (MI, GI %), H2009; format: cell-based; details: Table 1; 4 days; uM: osimertinib 0.5, afatinib 0.2, cobimetinib 0.4, trametinib 0.02, TAK-733 0.18, palbociclib 0.15, ribociclib 5
Method: as §1, §2, §3, §4

[8] = test system: KRAS^G12C-NSCLC H23 cell line; assay: Ex vivo Edu proliferation test (MI, GI %), H23; format: cell-based; details: Table 2a; 7 days; uM: osimertinib 0.5, afatinib 0.2, cobimetinib 0.4, trametinib 0.02, palbociclib 0.15, ribociclib 5
Method: as §1, §2, §3, §4

[9] = test system: KRAS^G12V-NSCLC H2444 cell line; assay: Ex vivo Edu proliferation test (MI, GI %), H2444; format: cell-based; details: Table 3; 4 days; uM: osimertinib 0.5, afatinib 0.2, trametinib 0.02, TAK-733 0.18, palbociclib 0.15, ribociclib 5
Method: as §1, §2, §3, §4

[10] = test system: KRAS^G12C NSCLC CDX model H358; format: in vivo

SMILES | GI % (Growth Inhibition Rate), H2030 [1] | MI 7 (Maximum Inhibition Index), H2030 [1] | GI % (Growth Inhibition Rate), SK-LU-1 [2] | MI 4 (Maximum Inhibition Index), SK-LU-1 [2] | GI % (Growth Inhibition Rate), H2291 [3] | MI 7 (Maximum Inhibition Index), H2291 [3] | GI % (Growth Inhibition Rate), H1573 [4] | MI 4 (Maximum Inhibition Index), H1573 [4] | GI % (Growth Inhibition Rate), H358 [5] | MI 7 (Maximum Inhibition Index), H358 [5] | GI % (Growth Inhibition Rate), H1588 [6] | MI 4 (Maximum Inhibition Index), H1588 [6] | GI % (Growth Inhibition Rate), H2009 [7] | MI 4 (Maximum Inhibition Index), H2009 [7] | GI % (Growth Inhibition Rate), H23 [8] | MI 7 (Maximum Inhibition Index), H23 [8] | GI % (Growth Inhibition Rate), H2444 [9] | MI 4 (Maximum Inhibition Index), H2444 [9] | further results
CN(C)C/C=C/C(=O)Nc1cc2c(Nc3ccc(F)c(Cl)c3)ncnc2cc1O[C@H]1CCOC1 [Afatinib, afatinib] | 55.33% | 2.23 | 8.65% | 1.09 | 26.00% | 1.35 | 42.36% | 1.73 | 22.84% | 1.30 | 43.02% | 1.75 | 14.83% | 1.17 | 16.09% | 0.87 | 44.30% | 1.80 | –
O=C(c1ccc(F)c(F)c1Nc1ccc(I)cc1F)N1CC(O)([C@@H]2CCCCN2)C1 [Cobimetinib, cobimetinib] | 92.44% | 13.21 | 64.82% | 2.84 | – | – | 96.36% | 27.49 | 97.48% | 39.68 | 48.38% | 1.94 | 67.99% | 3.12 | 75.83% | 4.25 | – | – | –
C=CC(=O)Nc1cc(Nc2nccc(-c3cn(C)c4ccccc34)n2)c(OC)cc1N(C)CCN(C)C [Osimertinib, osimertinib] | 57.39% | 2.35 | 35.73% | 1.56 | 21.19% | 1.30 | 67.71% | 3.10 | 22.86% | 1.30 | 55.11% | 2.23 | 35.30% | 1.55 | 13.11% | 0.89 | 66.51% | 2.99 | –
CC(=O)c1c(C)c2cnc(Nc3ccc(N4CCNCC4)cn3)nc2n(C2CCCC2)c1=O [Palbociclib, palbociclib] | 52.39% | 2.10 | 73.45% | 3.77 | 81.25% | 5.36 | 92.17% | 12.77 | 60.31% | 2.53 | 53.52% | 2.15 | 8.82% | 1.10 | 41.73% | 1.72 | 59.59% | 2.47 | –
CN(C)C(=O)c1cc2cnc(Nc3ccc(N4CCNCC4)cn3)nc2n1C1CCCC1 [Ribociclib, ribociclib] | 84.67% | 6.57 | 91.58% | 11.88 | 98.65% | 72.98 | 99.00% | 100.43 | 95.43% | 21.19 | 60.57% | 2.54 | 10.09% | 1.11 | 74.57% | 3.96 | 74.54% | 3.93 | –
Cn1c(=O)c(F)c(Nc2ccc(I)cc2F)c2c(=O)n(C[C@@H](O)CO)cnc21 [TAK-733] | – | – | 77.44% | 4.43 | 98.27% | 57.57 | 89.62% | 9.64 | – | – | 36.93% | 1.59 | 62.18% | 2.64 | – | – | 99.01% | 100.76 | –
N.N.[Cl][Pt][Cl] [cisplatin] | – | – | – | – | – | – | – | – | – | – | – | – | – | – | – | – | – | – | Mean Tumor Volume, study day 0 ([10]; Table 11A, day 0, mg/kg: osimertinib 10, cobimetinib 5, TAK-733 10, palbociclib 20 daily p.o., cetuximab 1, cisplatin 4 per week i.p., 21 days, then 7 days off): 164.52 ± 22.82 mm^3; Mean Tumor Volume, study day 3 ([10]; Table 11A, day 3, mg/kg: osimertinib 10, cobimetinib 5, TAK-733 10, palbociclib 20 daily p.o., cetuximab 1, cisplatin 4 per week i.p., 21 days, then 7 days off): 249.59 ± 33.58 mm^3; Mean Tumor Volume, study day 7 ([10]; Table 11A, day 7, mg/kg: osimertinib 10, cobimetinib 5, TAK-733 10, palbociclib 20 daily p.o., cetuximab 1, cisplatin 4 per week i.p., 21 days, then 7 days off): 438.18 ± 93.81 mm^3; Mean Tumor Volume, study day 10 ([10]; Table 11A, day 10, mg/kg: osimertinib 10, cobimetinib 5, TAK-733 10, palbociclib 20 daily p.o., cetuximab 1, cisplatin 4 per week i.p., 21 days, then 7 days off): 489.05 ± 102.01 mm^3; Mean Tumor Volume, study day 14 ([10]; Table 11A, day 14, mg/kg: osimertinib 10, cobimetinib 5, TAK-733 10, palbociclib 20 daily p.o., cetuximab 1, cisplatin 4 per week i.p., 21 days, then 7 days off): 618.71 ± 145.67 mm^3; Mean Tumor Volume, study day 17 ([10]; Table 11A, day 17, mg/kg: osimertinib 10, cobimetinib 5, TAK-733 10, palbociclib 20 daily p.o., cetuximab 1, cisplatin 4 per week i.p., 21 days, then 7 days off): 685.80 ± 180.07 mm^3; Mean Tumor Volume, study day 21 ([10]; Table 11A, day 21, mg/kg: osimertinib 10, cobimetinib 5, TAK-733 10, palbociclib 20 daily p.o., cetuximab 1, cisplatin 4 per week i.p., 21 days, then 7 days off): 828.32 ± 220.11 mm^3; Mean Tumor Volume, study day 24 ([10]; Table 11A, day 24, mg/kg: osimertinib 10, cobimetinib 5, TAK-733 10, palbociclib 20 daily p.o., cetuximab 1, cisplatin 4 per week i.p., 21 days, then 7 days off): 958.50 ± 207.93 mm^3; Mean Tumor Volume, study day 28 ([10]; Table 11A, day 28, mg/kg: osimertinib 10, cobimetinib 5, TAK-733 10, palbociclib 20 daily p.o., cetuximab 1, cisplatin 4 per week i.p., 21 days, then 7 days off): 1079.33 ± 275.10 mm^3; Tumor volume (mm^3) day 0 ([10]; Table 11C, day 0, doses as Table 11A (TAK-733 10 mg/kg)): 164.52 ± 22.82 mm^3; Tumor volume (mm^3) day 28 ([10]; Table 11C, day 28, doses as Table 11A (TAK-733 10 mg/kg)): 1079.33 ± 275.10 mm^3; TGI % ([10]; Table 11C, day 28 vs day 0, doses as Table 11A (TAK-733 10 mg/kg)): −10.2%; tumor growth inhibition, in words ([10]; Tables 11A and 11C, cisplatin at 4 mg/kg): no effect on inhibiting tumor growth
